Source: paper PMC4434416, “Purification and biochemical characterization of a newly produced yellow laccase from Lentinus squarrosulus MR13” (3 Biotech, 2014)

Tested on: yellow laccase
Conditions: 35 °C; pH of the kinetic assay not stated; printed ABTS range 40–600 mM

`CCn1c(=NN=c2sc3cc(S(=O)(=O)O)ccc3n2CC)sc2cc(S(=O)(=O)O)ccc21` [ABTS, 2,2′-Azinobis-(3-ethylbenzothiazoline-6-sulfonic acid)] was tested, and the Km was 71.4 µM.
